# Assay results reported in US20130172294A1, “Treatment with VB-201” (Vascular Biogenics Ltd., priority 2010, published 2013).
# “Also recorded” adds a separate entry of the source.
# Key:
# [1] = Repeated daily dose pharmacokinetics, 40 and 80 mg (Example 4); format: in vivo, human
# Description: Determination of VB-201 concentrations in plasma was performed using an HPLC-MS/MS (high performance liquid chromatography with tandem mass spectrometric detection) assay. Calibration was for a range of from 5 to 500 ng/ml for low doses and from 50 to 5000 ng/ml for high doses. Pharmacokinetic parameters were estimated by using a non-compartmental method, except for the AUC (area under curve), which was determined using a (log-) trapezoidal rule as the area above the previous trough level. […] The subjects were all healthy volunteers. […] 6 subjects received a placebo. The VB-201 was formulated in non-enterocoated capsules. Blood was collected for pharmacokinetic evaluation on day 1 (40 mg cohort) and on day 14 (40 and 80 mg cohorts).
# [2] = Safety and tolerability of repeated doses 40 and 80 mg (Example 4); format: in vivo, human
# From the text: Safety and tolerability of VB-201 was judged by evaluating the incidence of abnormal findings in the following measurements: vital signs: systolic and diastolic blood pressure, heart rate, respiratory rate, body temperature; physical examination; 12-lead electrocardiogram; laboratory tests of blood samples for: complete blood count, prothrombin time/partial thromboplastin time, LDL- and HDL-cholesterol, total cholesterol, triglycerides, glucose, blood urea nitrogen, sodium, potassium, creatinine, calcium, phosphorus, creatinine phosphokinase, lactate dehydrogenase, aspartate transaminase, alanine transaminase, γ-glutamyl transferase, alkaline phosphatase, protein, albumin, total bilirubin, total IgM and IgG antibodies, interleukin-12/23 p40, tumor necrosis factor-α, and interleukin-6, as well as routine urinalysis; and all adverse events, whether or not considered serious, and whether or not considered related to the investigational agent, according to the criteria for Good Clinical Practice. Treatment-emergent adverse events were defined as any adverse event that started on or after administration of the first dose of VB-201, and no more than 30 days after administration of the last dose, or are ongoing at the time of the first dose and worsened in severity or frequency during treatment. […] The subjects were all healthy volunteers. […] 6 subjects received a placebo. […]
structure (smiles),measurement,setting,value
"CCCCCCCCCCCCCCCCOCC(COP(=O)([O-])OCC[N+](C)(C)C)OCCCCC(=O)O (stereo not shown) [VB-201, 1-hexadecyl-2-(4′-carboxybutyl)-glycerol-3-phosphocholine]",AUC(0-infinity),"[1]; daily 40 mg, Day 1",31952 ± 9680 ng·h/mL
same,Cl/F (0-24),"[1]; daily 40 mg, Day 1",2.837 ± 1.064 L/h
same,Cl/F(0-infinity),"[1]; daily 40 mg, Day 1",1.346 ± 0.401 L/h
same,Cmax,"[1]; daily 40 mg, Day 1",923.7 ± 287.4 ng/mL
same,Ke,"[1]; daily 40 mg, Day 1",0.0305 ± 0.0124 h⁻¹
same,MTT (0-24),"[1]; daily 40 mg, Day 1",12.0 ± 0.5 h
same,MTT(0-infinity),"[1]; daily 40 mg, Day 1",41.3 ± 17.6 h
same,T1/2,"[1]; daily 40 mg, Day 1",26.8 ± 13.0 h
same,Tmax,"[1]; daily 40 mg, Day 1",8.7 ± 3.8 h
same,AUC(0-24),"[1]; daily 40 mg, Day 14",47393 ± 16792 ng·h/mL
same,AUC(0-infinity),"[1]; daily 40 mg, Day 14",117013 ± 55816 ng·h/mL
same,Cl/F (0-24),"[1]; daily 40 mg, Day 14",0.970 ± 0.436 L/h
same,Cl/F(0-infinity),"[1]; daily 40 mg, Day 14",0.405 ± 0.172 L/h
same,Cmax,"[1]; daily 40 mg, Day 14",2544.6 ± 800.5 ng/mL
same,Ke,"[1]; daily 40 mg, Day 14",0.0270 ± 0.0111 h⁻¹
same,MTT (0-24),"[1]; daily 40 mg, Day 14",11.1 ± 0.4 h
same,MTT(0-infinity),"[1]; daily 40 mg, Day 14",45.2 ± 18.8 h
same,T1/2,"[1]; daily 40 mg, Day 14",30.2 ± 13.6 h
same,Tmax,"[1]; daily 40 mg, Day 14",4.2 ± 2.0 h
same,AUC(0-24),"[1]; daily 80 mg, Day 14",89779 ± 21751 ng·h/mL
same,AUC(0-infinity),"[1]; daily 80 mg, Day 14",206918 ± 62474 ng·h/mL
same,Cl/F (0-24),"[1]; daily 80 mg, Day 14",0.941 ± 0.247 L/h
same,Cl/F(0-infinity),"[1]; daily 80 mg, Day 14",0.422 ± 0.144 L/h
same,Cmax,"[1]; daily 80 mg, Day 14",4820.2 ± 930.3 ng/mL
same,Ke,"[1]; daily 80 mg, Day 14",0.0251 ± 0.0048 h⁻¹
same,MTT (0-24),"[1]; daily 80 mg, Day 14",11.0 ± 0.4 h
same,MTT(0-infinity),"[1]; daily 80 mg, Day 14",41.5 ± 7.8 h
same,T1/2,"[1]; daily 80 mg, Day 14",28.5 ± 5.8 h
same,Tmax,"[1]; daily 80 mg, Day 14",6.0 ± 1.1 h
same,serious adverse events,"[2]; daily 40 or 80 mg, 14 or 28 day cohorts",No serious adverse events were reported
same,safety and tolerability,[2]; daily doses of up to 80 mg for up to 28 days,"both safe and well-tolerated; also recorded: well-tolerated by subjects, and no substantial toxicity was observed"
